Publication PMC6389993, “Quercetin and its metabolite isorhamnetin promote glucose uptake through different signalling pathways in myotubes” (Scientific Reports, 2019)

What was measured:
GLUT4 = GLUT4 translocation in L6 myotubes after siRNA knockdown of AMPKα, JAK2 or JAK3; format: cell-based, rat; details: 1 nM quercetin or isorhamnetin
Procedure: (§1) For in vitro cell culture experiments, after serum starvation for 18 h, myotubes were treated with various concentrations of quercetin or isorhamnetin (0.1–10 nM) for 15 min; DMSO (final 0.1%) was used as a vehicle control. As positive controls, 100 nM insulin, 1 mM AICAR, 10 nM leptin, or 100 ng/mL IL-15 were used for insulin, AMPK, JAK2/STAT, or JAK3/STAT signalling pathways, respectively. Cells were treated with insulin or AICAR for 15 min, leptin for 60 min, or IL-15 for 24 h. Whole protein and plasma membrane fractions were prepared from myotubes, as previously described. For in vivo experiment, plasma membrane fraction and tissue lysate of soleus muscle were prepared.
(§2) Translocation of GLUT4 to the plasma membrane, as well as expression and phosphorylation levels of GLUT4-related regulators were estimated by western blot analysis. Briefly, equal amounts of proteins were separated by sodium dodecyl sulfate-polyacrylamide gel electrophoresis (SDS-PAGE). Separated proteins were transferred onto a polyvinylidene fluoride membrane and nonspecific binding sites were blocked using either Blocking One (to detect unphosphorylated proteins) or Blocking One-P (to detect phosphoproteins). The membrane was incubated overnight with an appropriate primary antibody for GLUT4 (1:5000), IR (1:10000), p-IRS1 (1:5000), IRS1 (1:5000), p-PI3K (1:5000), PI3K (1:10000), p-Akt (1:5000), Akt (1:10000), p-AMPKα (1:5000), AMPKα (1:10000), p-ACC (1:5000), ACC (1:10000), p-LKB1 (1:5000), LKB1 (1:10000), p-JAK2 (1:5000), JAK2 (1:5000), p-JAK3 (1:5000), JAK3 (1:10000), p-STAT1 (1:5000), STAT1 (1:10000), p-STAT3 (1:5000), STAT3 (1:10000), p-STAT5 (1:5000), STAT5 (1:10000), or β-actin (1:20000), and subsequently treated with the corresponding horseradish peroxidase-conjugated secondary antibody (1:50000) for 1 h. Specific immune complexes were developed using ImmunoStar® LD and detected with an ATTO Light-Capture II Western Blotting Detection System. Individual band density was calculated by ImageJ and normalized to the control.
Mature myotubes were cultured in antibiotic-free medium and transfected with siRNA at a final concentration of 50 nM using Lipofectamine RNAiMAX transfection reagent according to the manufacturer’s instructions. In brief, mature myotubes were transfected with siRNA in Opti-MEM for 48 h. Subsequently, the medium was changed to fresh Opti-MEM and cells were treated with the indicated concentrations of quercetin or isorhamnetin.

AMPK = assay: Phosphorylation of AMPK in L6 myotubes (western blot); format: cell-based, rat
Procedure: In vitro cultured cell experiments were conducted according to a previously described protocol[6],[14]. Briefly, L6 myoblasts derived from rat skeletal muscle and of less than 40 passages were maintained in MEM supplemented with 10% foetal bovine serum (FBS) and antibiotics (100 U/ml penicillin and 100 μg/ml streptomycin) at 37 °C under a humidified atmosphere condition of 5% CO2 and 95% air. In each experiment, cells (2.2 × 10^4 cells/ml) were seeded into 96-well plates or 60-mm dishes for induction of differentiation into mature myotubes. After reaching confluence, cells were supplemented with differentiation medium containing 2% FBS and the same antibiotics for 7 days. Cells were used for each experiment after morphological analysis of differentiation status using phase-contrast microscopy. To explore the contribution of CaMKKβ or intracellular-free calcium ions in quercetin- and isorhamnetin-stimulated GLUT4 translocation, L6 cells were incubated in the presence or absence of 10 μM STO-609 and 25 μM […], respectively, for 30 min prior to treatment with either quercetin or isorhamnetin.
as §1, §2
42 after morphological analysis of differentiation status using phase-contrast microscopy.
43 Preparation of whole protein and plasma membrane fractions After serum starvation
44 for 18 h, myotubes were treated with various concentrations of quercetin or isorhamnetin (1–
45 10 μM) for 15 min; DMSO (final 0.1%) was used as a vehicle control. As positive controls, […]

## NC(=O)c1ncn([C@@H]2O[C@H](CO)[C@@H](O)[C@H]2O)c1N [AICAR, 5-aminoimidazole-4-carboxyamide ribonucleoside, reference compound]
GLUT4; siAMPKα 50 nM 48 h, 1 mM AICAR
  compound-induced GLUT4 translocation after siRNA for AMPK: almost completely abolished

## CC(=O)OCOC(=O)CN(CC(=O)OCOC(C)=O)c1ccccc1OCCOc1ccccc1N(CC(=O)OCOC(C)=O)CC(=O)OCOC(C)=O [BAPTA-AM, 1,2-Bis (2-aminophenoxy) ethane-N,N,N′,N′-tetraacetic acid tetrakis (acetoxymethyl ester), reference compound]
AMPK; 25 μM BAPTA-AM for 30 min prior to 1 nM quercetin
  effect on quercetin-induced AMPK phosphorylation: did not affect

## O=C(O)c1ccc2c3c1cccc3c(=O)n1c3ccccc3nc21 [STO-609, reference compound]
AMPK; 10 μM STO-609 for 30 min prior to 1 nM quercetin
  effect on quercetin-induced AMPK phosphorylation: abolished

## leptin: positive control for JAK2/STAT signalling pathway
GLUT4; siJAK2 50 nM 48 h, 10 nM leptin
  compound-induced GLUT4 translocation after siRNA for JAK2: abolished
